Assay results: publication PMC8459971, “Evaluation of the hepatotoxicity of the novel GPR40 (FFAR1) agonist CPL207280 in the rat and monkey” (PLoS ONE, 2021)
Values joined by “and” are separate entries in the source; they are usually repeats but may differ in a detail not shown here. Equal values may be shown once.

Experiments:
[1] = Stability in microsomes, human; type: in vitro ADME; settings: for average DEG [%]: human microsomes, with cofactors
Protocol: The final incubation volume was 500 μL. Two control compounds (verapamil and donepezil) were included for each microsomal species, along with the appropriate vehicle control. The reactions were terminated by transferring 50 μL of incubate to 100 μL methanol containing an internal standard (metoprolol) at appropriate time points (0, 10, 20, 40, 60, and 120 min for the test compound and 0, 5, 10, 20, 40, and 60 min for the control compounds). The termination plates were centrifuged at 4000 x g at 4°C for 30 min to precipitate the protein. The supernatants were then collected for analysis, and LC-MS/MS was used for detection purposes. The system consisted of an Acquity™ Binary Solvent Manager, Acquity™ 4-position heated column manager, 2777 Ultra High Pressure Autosampler, and a Xevo-TQ MS triple quadrupole mass spectrometer (Waters Ltd., Herts, UK). This process was carried out twice.

OAT2v1 = target: T1, OAT2v1 (Homo sapiens, UniProt Q9Y694); experiment: Uptake transporter inhibition assay, OAT2v1; type: cell-based; settings: for Accumulation (counts per minute; CPM) HEK293FT-MOCK / Accumulation (counts per minute; CPM) HEK293FT-OAT2v1: OAT2v1
T1 construct: expressed in transfected cells; host or cells: HEK cells
T1 sequence (Q9Y694 1-546 isoform Q9Y694-2): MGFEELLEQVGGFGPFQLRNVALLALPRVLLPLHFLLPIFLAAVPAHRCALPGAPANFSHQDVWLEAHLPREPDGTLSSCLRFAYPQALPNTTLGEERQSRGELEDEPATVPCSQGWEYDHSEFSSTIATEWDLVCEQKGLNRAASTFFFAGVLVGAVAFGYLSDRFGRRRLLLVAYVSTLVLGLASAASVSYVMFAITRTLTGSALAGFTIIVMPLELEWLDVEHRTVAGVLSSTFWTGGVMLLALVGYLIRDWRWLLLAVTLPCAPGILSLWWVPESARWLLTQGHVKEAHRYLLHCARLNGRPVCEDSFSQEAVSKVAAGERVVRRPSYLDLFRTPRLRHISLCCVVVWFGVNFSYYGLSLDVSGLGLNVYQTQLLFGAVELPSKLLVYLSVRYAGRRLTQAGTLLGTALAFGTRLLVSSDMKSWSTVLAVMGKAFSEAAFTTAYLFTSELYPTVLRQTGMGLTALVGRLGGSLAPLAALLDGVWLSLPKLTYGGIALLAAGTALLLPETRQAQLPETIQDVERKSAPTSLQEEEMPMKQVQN
Protocol: (§1) For the uptake transporter inhibition assay, cells were washed twice with 100 μL of the appropriate buffer (HK, pH 7.4) for OATP1B1, followed by HBSS (pH 7.4) for (NTCP, OAT1, OAT2v1, OATP1A2, and OATP1B3). Uptake experiments were carried out at 37 ± 1°C in 50 μL of the respective buffer containing the probe substrate and the compound or solvent.

NTCP = target: T2, NTCP (Homo sapiens, UniProt Q14973); experiment: Uptake transporter inhibition assay, NTCP; type: cell-based; settings: for Accumulation (counts per minute; CPM) HEK293-NTCP / Accumulation (counts per minute; CPM) HEK293FT-MOCK: NTCP
T2 construct: expressed in transfected cells; host or cells: HEK cells
T2 sequence (Q14973 1-349): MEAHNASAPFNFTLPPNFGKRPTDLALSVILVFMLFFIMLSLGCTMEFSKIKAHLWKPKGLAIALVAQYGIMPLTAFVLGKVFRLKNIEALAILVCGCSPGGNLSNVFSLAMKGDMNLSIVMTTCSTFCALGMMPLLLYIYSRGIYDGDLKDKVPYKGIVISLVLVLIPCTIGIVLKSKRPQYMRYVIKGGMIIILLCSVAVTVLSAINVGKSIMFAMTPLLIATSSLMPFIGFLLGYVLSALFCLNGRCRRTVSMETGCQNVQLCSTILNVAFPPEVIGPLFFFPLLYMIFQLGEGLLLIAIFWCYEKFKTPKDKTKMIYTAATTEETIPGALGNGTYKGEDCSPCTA
Protocol: as §1

in vivo = settings: both, Wistar Han, rat, 600 mg/kg, 14 days
MRP3 = MRP3 (Homo sapiens, UniProt O15438); experiment: Vesicular transport inhibition assay, MRP3; settings: for Accumulation (counts per minute; CPM) with AMP / Accumulation (counts per minute; CPM) with ATP: MRP3;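 note: membrane vesicles with radiolabelled probe substrate and 2 mM glutathione, 4 mM ATP versus AMP background control, vesicle-trapped substrate quantified by liquid scintillation counting after filtration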;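 for Accumulation (counts per minute; CPM) with AMP: ATP 4 mM vs AMP background separates transporter uptake from diffusion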;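 for Accumulation (counts per minute; CPM) with ATP: ATP 4 mM vs AMP background separates transporter uptake from diffusion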
MRP3, sequence (O15438 whole entry, the tested form may be a part): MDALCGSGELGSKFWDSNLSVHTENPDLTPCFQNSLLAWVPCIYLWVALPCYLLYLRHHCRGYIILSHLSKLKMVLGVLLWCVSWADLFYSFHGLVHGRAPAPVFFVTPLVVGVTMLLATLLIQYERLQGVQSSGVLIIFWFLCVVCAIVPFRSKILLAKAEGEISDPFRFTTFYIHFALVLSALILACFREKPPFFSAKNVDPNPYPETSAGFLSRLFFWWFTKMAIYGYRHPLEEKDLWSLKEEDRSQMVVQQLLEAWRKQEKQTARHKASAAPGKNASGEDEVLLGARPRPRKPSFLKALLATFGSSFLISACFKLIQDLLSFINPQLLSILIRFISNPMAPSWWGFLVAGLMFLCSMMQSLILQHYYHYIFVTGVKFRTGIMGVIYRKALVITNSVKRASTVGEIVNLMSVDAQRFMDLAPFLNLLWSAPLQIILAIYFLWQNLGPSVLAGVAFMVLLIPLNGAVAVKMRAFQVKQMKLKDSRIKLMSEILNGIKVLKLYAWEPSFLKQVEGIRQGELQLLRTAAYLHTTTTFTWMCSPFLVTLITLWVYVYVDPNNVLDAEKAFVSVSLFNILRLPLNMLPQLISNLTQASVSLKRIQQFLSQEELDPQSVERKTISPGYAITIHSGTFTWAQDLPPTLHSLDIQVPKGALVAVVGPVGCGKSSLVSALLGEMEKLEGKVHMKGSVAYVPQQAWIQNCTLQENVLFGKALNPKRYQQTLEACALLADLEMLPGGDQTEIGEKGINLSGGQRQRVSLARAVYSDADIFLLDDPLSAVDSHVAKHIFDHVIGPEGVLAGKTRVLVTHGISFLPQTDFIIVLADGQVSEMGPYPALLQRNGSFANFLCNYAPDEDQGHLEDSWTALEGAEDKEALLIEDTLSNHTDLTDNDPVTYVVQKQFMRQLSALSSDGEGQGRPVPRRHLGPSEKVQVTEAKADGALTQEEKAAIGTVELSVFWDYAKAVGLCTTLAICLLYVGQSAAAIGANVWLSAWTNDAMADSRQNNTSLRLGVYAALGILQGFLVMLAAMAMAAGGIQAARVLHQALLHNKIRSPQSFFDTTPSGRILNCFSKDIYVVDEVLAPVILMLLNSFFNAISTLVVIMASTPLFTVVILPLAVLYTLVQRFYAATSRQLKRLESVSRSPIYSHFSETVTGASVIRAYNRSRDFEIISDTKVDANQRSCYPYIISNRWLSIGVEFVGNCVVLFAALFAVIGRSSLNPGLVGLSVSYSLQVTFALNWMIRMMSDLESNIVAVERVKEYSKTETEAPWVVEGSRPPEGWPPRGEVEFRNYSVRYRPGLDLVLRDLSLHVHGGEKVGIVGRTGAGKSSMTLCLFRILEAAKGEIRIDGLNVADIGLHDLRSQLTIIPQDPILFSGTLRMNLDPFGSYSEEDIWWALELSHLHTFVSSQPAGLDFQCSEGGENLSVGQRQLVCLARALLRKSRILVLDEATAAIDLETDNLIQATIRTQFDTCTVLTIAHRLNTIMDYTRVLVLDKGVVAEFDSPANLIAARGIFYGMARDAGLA
Protocol: (§2) In the vesicular transport inhibition assay (for BSEP, MRP) compounds were incubated with membrane vesicle preparations and the probe substrate. Incubations were carried out in the presence of 4 mM ATP or AMP to distinguish between transporter-mediated uptake and passive diffusion into the vesicles. For MRP2 and MRP3, reactions were carried out in the presence of 2 mM glutathione. Compounds were added to the reaction mixture in 0.75 μL of solvent (1% of the final incubation volume). […] Reactions were initiated by the addition of 25 μL of 12 mM MgATP (or 12 mM AMP in assay buffer as a background control) and preincubated separately. Reactions were quenched by the addition of 200 μL of ice-cold washing buffer and immediate filtration via glass fiber filters mounted on a 96-well plate (filter plate). The filters were washed (5 × 200 μL of ice-cold washing buffer), dried, and the amount of substrate inside the filtered vesicles was determined by liquid scintillation counting.

BSEP = BSEP (Homo sapiens, UniProt O95342); experiment: Vesicular transport inhibition assay, BSEP
BSEP, sequence (O95342 whole entry): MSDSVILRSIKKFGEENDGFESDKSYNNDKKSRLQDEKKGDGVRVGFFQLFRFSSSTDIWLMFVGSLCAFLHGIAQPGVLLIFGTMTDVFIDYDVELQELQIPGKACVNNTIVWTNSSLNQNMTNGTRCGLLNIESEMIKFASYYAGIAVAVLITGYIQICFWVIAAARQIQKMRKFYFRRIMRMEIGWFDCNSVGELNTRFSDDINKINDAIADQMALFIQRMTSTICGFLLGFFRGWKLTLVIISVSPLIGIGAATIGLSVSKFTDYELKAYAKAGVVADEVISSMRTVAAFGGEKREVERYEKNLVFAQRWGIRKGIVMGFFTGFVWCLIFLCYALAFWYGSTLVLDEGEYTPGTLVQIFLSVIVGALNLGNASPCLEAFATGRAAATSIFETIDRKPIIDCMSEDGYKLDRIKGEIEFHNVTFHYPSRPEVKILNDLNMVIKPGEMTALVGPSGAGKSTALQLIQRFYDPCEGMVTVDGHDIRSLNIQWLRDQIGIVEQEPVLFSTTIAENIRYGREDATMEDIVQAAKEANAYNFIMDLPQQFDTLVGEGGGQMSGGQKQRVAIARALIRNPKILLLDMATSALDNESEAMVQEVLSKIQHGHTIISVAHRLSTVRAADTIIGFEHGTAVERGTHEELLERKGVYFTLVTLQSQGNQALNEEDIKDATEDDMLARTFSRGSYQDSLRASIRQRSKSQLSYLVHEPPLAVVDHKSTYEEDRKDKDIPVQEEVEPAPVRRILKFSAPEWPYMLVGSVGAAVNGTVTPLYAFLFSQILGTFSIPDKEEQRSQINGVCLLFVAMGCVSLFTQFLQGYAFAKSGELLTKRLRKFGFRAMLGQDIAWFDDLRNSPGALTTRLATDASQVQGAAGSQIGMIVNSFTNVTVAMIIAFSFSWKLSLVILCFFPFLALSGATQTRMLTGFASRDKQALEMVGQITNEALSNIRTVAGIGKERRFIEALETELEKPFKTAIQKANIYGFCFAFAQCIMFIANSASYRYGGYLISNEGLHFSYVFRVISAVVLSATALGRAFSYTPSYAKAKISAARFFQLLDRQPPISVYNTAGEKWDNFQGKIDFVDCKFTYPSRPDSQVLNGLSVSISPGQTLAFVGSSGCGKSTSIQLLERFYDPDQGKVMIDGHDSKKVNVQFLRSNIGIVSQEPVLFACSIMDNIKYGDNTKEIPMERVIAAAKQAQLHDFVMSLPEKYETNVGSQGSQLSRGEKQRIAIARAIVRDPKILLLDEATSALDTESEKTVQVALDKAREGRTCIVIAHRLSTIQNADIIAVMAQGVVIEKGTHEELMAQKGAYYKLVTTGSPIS
Protocol: as §2

[2] = transformed HEK cells, up to 300μM, n = 2

Compound: Cc1cc(OCCCS(C)(=O)=O)cc(C)c1-c1cccc(COc2ccc3c(c2)OC[C@H]3CC(=O)O)c1 [TAK-875, fasiglifam, reference compound]
- half-life at 3 μM ([1]; Human microsomes, mean n = 2): 3.5 h
- microsomal CLint at 3 μM ([1]; Human microsomes, mean n = 2): 6.6 µL/min/mg
- stability classification in microsomes ([1]; based on the Clint values from different species, reference ranges by Cyprotex (human range given in legend)): stable compound
- average DEG [%] ([1]; 0 min): 100.0%
- average DEG [%] ([1]; 20 min): 110.6%
- average DEG [%] ([1]; 40 min): 92.5%
- average DEG [%] ([1]; 60 min): 85.1%
- Accumulation (counts per minute; CPM) HEK293FT-MOCK (OAT2v1; conc 0.10 µM): 37 CPM and 25 CPM
- Accumulation (counts per minute; CPM) HEK293FT-OAT2v1 (OAT2v1; conc 0.10 µM): 4606 CPM and 4412 CPM
- Accumulation (counts per minute; CPM) HEK293FT-MOCK (OAT2v1; conc 0.30 µM): 30 CPM
- Accumulation (counts per minute; CPM) HEK293FT-OAT2v1 (OAT2v1; conc 0.30 µM): 4740 CPM and 4495 CPM
- Accumulation (counts per minute; CPM) HEK293FT-MOCK (OAT2v1; conc 1.00 µM): 33 CPM
- Accumulation (counts per minute; CPM) HEK293FT-OAT2v1 (OAT2v1; conc 1.00 µM): 4344 CPM and 4183 CPM
- Accumulation (counts per minute; CPM) HEK293FT-MOCK (OAT2v1; conc 3.00 µM): 34 CPM and 20 CPM
- Accumulation (counts per minute; CPM) HEK293FT-OAT2v1 (OAT2v1; conc 3.00 µM): 4050 CPM and 3892 CPM
- Accumulation (counts per minute; CPM) HEK293FT-MOCK (OAT2v1; conc 10.00 µM): 25 CPM and 18 CPM
- Accumulation (counts per minute; CPM) HEK293FT-OAT2v1 (OAT2v1; conc 10.00 µM): 3715 CPM and 3589 CPM
- Accumulation (counts per minute; CPM) HEK293FT-MOCK (OAT2v1; conc 30.00 µM): 47 CPM and 27 CPM
- Accumulation (counts per minute; CPM) HEK293FT-OAT2v1 (OAT2v1; conc 30.00 µM): 3019 CPM and 2844 CPM
- Accumulation (counts per minute; CPM) HEK293FT-MOCK (OAT2v1; conc 100.00 µM): 24 CPM and 30 CPM
- Accumulation (counts per minute; CPM) HEK293FT-OAT2v1 (OAT2v1; conc 100.00 µM): 1943 CPM and 1847 CPM
- IC50 (OAT2v1; [2]): 62.8 µM
- Accumulation (counts per minute; CPM) HEK293-NTCP (NTCP; conc 0.10 µM): 4946 CPM and 5522 CPM
- Accumulation (counts per minute; CPM) HEK293FT-MOCK (NTCP; conc 0.10 µM): 31 CPM and 28 CPM
- Accumulation (counts per minute; CPM) HEK293-NTCP (NTCP; conc 0.30 µM): 4754 CPM and 4976 CPM
- Accumulation (counts per minute; CPM) HEK293FT-MOCK (NTCP; conc 0.30 µM): 28 CPM and 36 CPM
- Accumulation (counts per minute; CPM) HEK293-NTCP (NTCP; conc 1.00 µM): 4452 CPM and 4849 CPM
- Accumulation (counts per minute; CPM) HEK293FT-MOCK (NTCP; conc 1.00 µM): 23 CPM and 31 CPM
- Accumulation (counts per minute; CPM) HEK293-NTCP (NTCP; conc 3.00 µM): 4304 CPM and 4641 CPM
- Accumulation (counts per minute; CPM) HEK293FT-MOCK (NTCP; conc 3.00 µM): 25 CPM and 22 CPM
- Accumulation (counts per minute; CPM) HEK293-NTCP (NTCP; conc 10.00 µM): 3509 CPM and 4053 CPM
- Accumulation (counts per minute; CPM) HEK293FT-MOCK (NTCP; conc 10.00 µM): 28 CPM and 26 CPM
- Accumulation (counts per minute; CPM) HEK293-NTCP (NTCP; conc 30.00 µM): 2661 CPM and 2656 CPM
- Accumulation (counts per minute; CPM) HEK293FT-MOCK (NTCP; conc 30.00 µM): 25 CPM and 30 CPM
- Accumulation (counts per minute; CPM) HEK293-NTCP (NTCP; conc 100.00 µM): 1608 CPM and 1569 CPM
- Accumulation (counts per minute; CPM) HEK293FT-MOCK (NTCP; conc 100.00 µM): 25 CPM and 33 CPM
- IC50 (NTCP; [2]): 53.1 µM
- exposure exceeding the CPL207280 exposure (in vivo): 200%
- IC50 (MRP3): 31.8 µM
- Accumulation (counts per minute; CPM) with AMP (MRP3; conc 0.07 µM): 151 CPM and 146 CPM
- Accumulation (counts per minute; CPM) with ATP (MRP3; conc 0.07 µM): 3266 CPM and 3317 CPM
- Accumulation (counts per minute; CPM) with AMP (MRP3; conc 0.21 µM): 149 CPM and 132 CPM
- Accumulation (counts per minute; CPM) with ATP (MRP3; conc 0.21 µM): 3233 CPM and 3776 CPM
- Accumulation (counts per minute; CPM) with AMP (MRP3; conc 0.62 µM): 197 CPM and 169 CPM
- Accumulation (counts per minute; CPM) with ATP (MRP3; conc 0.62 µM): 3398 CPM and 3538 CPM
- Accumulation (counts per minute; CPM) with AMP (MRP3; conc 16.67 µM): 238 CPM and 245 CPM
- Accumulation (counts per minute; CPM) with ATP (MRP3; conc 16.67 µM): 2701 CPM and 2568 CPM
- Accumulation (counts per minute; CPM) with AMP (MRP3; conc 50.00 µM): 232 CPM and 210 CPM
- Accumulation (counts per minute; CPM) with ATP (MRP3; conc 50.00 µM): 1204 CPM and 1302 CPM
- Accumulation (counts per minute; CPM) HEK293-BSEP (BSEP; conc 0.41 µM): 11727 CPM and 12245 CPM and 11981 CPM
- Accumulation (counts per minute; CPM) HEK293-MOCK (BSEP; conc 0.41 µM): 463 CPM and 375 CPM and 363 CPM
- Accumulation (counts per minute; CPM) HEK293-BSEP (BSEP; conc 1.23 µM): 11757 CPM and 12666 CPM and 12491 CPM
- Accumulation (counts per minute; CPM) HEK293-MOCK (BSEP; conc 1.23 µM): 465 CPM and 378 CPM and 379 CPM
- Accumulation (counts per minute; CPM) HEK293-BSEP (BSEP; conc 3.70 µM): 11540 CPM and 12190 CPM and 12485 CPM
- Accumulation (counts per minute; CPM) HEK293-MOCK (BSEP; conc 3.70 µM): 406 CPM and 443 CPM and 391 CPM
- Accumulation (counts per minute; CPM) HEK293-BSEP (BSEP; conc 11.11 µM): 11930 CPM and 12790 CPM and 12439 CPM
- Accumulation (counts per minute; CPM) HEK293-MOCK (BSEP; conc 11.11 µM): 450 CPM and 398 CPM and 437 CPM
- Accumulation (counts per minute; CPM) HEK293-BSEP (BSEP; conc 33.33 µM): 10294 CPM and 11069 CPM and 10674 CPM
- Accumulation (counts per minute; CPM) HEK293-MOCK (BSEP; conc 33.33 µM): 418 CPM and 356 CPM and 425 CPM
- Accumulation (counts per minute; CPM) HEK293-BSEP (BSEP; conc 100 µM): 6186 CPM and 6483 CPM and 6458 CPM
- Accumulation (counts per minute; CPM) HEK293-MOCK (BSEP; conc 100 µM): 375 CPM and 361 CPM and 372 CPM
